Consider 33 compounds from ChEMBL document CHEMBL4819081 (Eur J Med Chem, 2021).

As usually defined, the IC50 is the concentration that inhibits the measured activity by half. As usually defined, the inhibition is the drop in the measured response relative to a control, in per cent.

Experiment [1] has as its system NCI-H1299. The experiment in a line: Antiproliferative activity against human NCI-H1299 cells assessed as reduction in cell viability after 72 hrs by MTT assay. Format: functional, cell-based. The conditions noted are these: NCI-H1299, 72 h. For orientation: Formazan colour is commonly taken as a measure of viable cells.
Experiment [2] has as its system MDA-MB-231. The experiment in a line: Antiproliferative activity against human MDA-MB-231 cells assessed as reduction in cell viability after 72 hrs by MTT assay. In kind it is functional, cell-based. The conditions noted are these: MDA-MB-231, 72 h.
Experiment [3] has as its system MDA-MB-453. Kind of experiment: Antiproliferative activity against human MDA-MB-453 cells assessed as reduction in cell viability after 72 hrs by MTT assay. In kind it is functional, cell-based. The conditions noted are these: MDA-MB-453, 72 h.
Experiment [4] deals with MCF7. The experiment in a line: Antiproliferative activity against human MCF7 cells assessed as reduction in cell viability after 72 hrs by MTT assay. In kind it is functional, cell-based. To be noted: MCF7, 72 h.
Experiment [5] concerns the target T1, Cyclin-dependent kinase 4/cyclin D1 (Homo sapiens) (UniProt P11802+P24385). Kind of experiment: Inhibition of CDK4/Cyclin D1 (unknown origin) at 200 nM using ATP by mobility shift assay. Format: protein-complex assay.
The target of experiment [6] is T1, Cyclin-dependent kinase 4/cyclin D1 (Homo sapiens). Kind of experiment: Inhibition of CDK4/Cyclin D1 (unknown origin) at 20 nM using ATP by mobility shift assay. Format: protein-complex assay.
The target in experiment [7] is T2, CDK6/cyclin D3 (Homo sapiens) (UniProt P30281+Q00534). Kind of experiment: Inhibition of CDK6/Cyclin D3 (unknown origin) at 200 nM using ATP by mobility shift assay. In kind it is protein-complex assay.
For experiment [8], the target named is T2, CDK6/cyclin D3 (Homo sapiens). The experiment in a line: Inhibition of CDK6/Cyclin D3 (unknown origin) at 20 nM using ATP by mobility shift assay. Format: protein-complex assay.

A value given as a limit tells only on which side of the number the result lay.

For `C=CC(=O)NCCCCNC(=O)CN1CCN(c2ccc(Nc3ncc4c(C)c(C(C)=O)c(=O)n(C5CCCC5)c4n3)nc2)CC1`, the IC50 in experiment [1], in experiment [2], in experiment [3] and in experiment [4] was over 20 µM in each case.

Take `CC(=O)c1c(C)c2cnc(Nc3ccc(N4CCN(CCC(=O)NCCOCCOCCNCC#N)CC4)cn3)nc2n(C2CCCC2)c1=O`: the IC50 in experiment [1], in experiment [2], in experiment [3] and in experiment [4] was over 20 µM in each case.

With `CC(=O)c1c(C)c2cnc(Nc3ccc(N4CCN(CC(=O)NCCOCCOCCNC(=O)CCl)CC4)cn3)nc2n(C2CCCC2)c1=O`, the IC50 in experiment [1], in experiment [2], in experiment [3] and in experiment [4] was over 20 µM throughout.

As for `CC(=O)c1c(C)c2cnc(Nc3ccc(N4CCN(CC(=O)NCCCCCCNC(=O)CCl)CC4)cn3)nc2n(C2CCCC2)c1=O`, the IC50 in experiment [1] stood at 8.88 µM; in experiment [2], 9.89 µM; in experiment [3], 5.11 µM; in experiment [4], 14.5 µM. Also, the inhibition in experiment [5] was 90.9%; in experiment [6], 45.7%; in experiment [7] it was 98.2%; in experiment [8], 71.3%.

Take `C=CC(=O)NCCCNC(=O)CCN1CCN(c2ccc(Nc3ncc4c(C)c(C(C)=O)c(=O)n(C5CCCC5)c4n3)nc2)CC1`: the IC50 was over 20 µM in experiment [1], 18.3 µM in experiment [2], over 20 µM in experiment [3] and over 20 µM in experiment [4].

For the compound `C=CC(=O)N1CCN(c2ccc(Nc3ncc4c(C)c(C(C)=O)c(=O)n(C5CCCC5)c4n3)nc2)CC1`, the IC50 in experiment [1] is 8.5 µM; in experiment [2] it was over 20 µM; in experiment [3], 6.96 µM; in experiment [4], over 20 µM.

On to `CC(=O)c1c(C)c2cnc(Nc3ccc(N4CCN(CCC(=O)NCCCCNCC#N)CC4)cn3)nc2n(C2CCCC2)c1=O`, for which the half-inhibitory concentration (IC50) was 8.42 µM in experiment [1], 12.5 µM in experiment [2], 12.8 µM in experiment [3] and over 20 µM in experiment [4].

Turning to `CC(=O)c1c(C)c2cnc(Nc3ccc(N4CCN(CCC(=O)NCCNCC#N)CC4)cn3)nc2n(C2CCCC2)c1=O`, the IC50 in experiment [1], in experiment [2], in experiment [3] and in experiment [4] was over 20 µM each time.

Take `C=CC(=O)NCCCNC(=O)CN1CCN(c2ccc(Nc3ncc4c(C)c(C(C)=O)c(=O)n(C5CCCC5)c4n3)nc2)CC1`: the IC50 in experiment [1] is over 20 µM; in experiment [2], 18 µM; in experiment [3] it was over 20 µM; in experiment [4], over 20 µM.

With `CC(=O)c1c(C)c2cnc(Nc3ccc(N4CCN(CC(=O)NCCCCCCNCC#N)CC4)cn3)nc2n(C2CCCC2)c1=O`, the IC50 in experiment [1], in experiment [2], in experiment [3] and in experiment [4] was over 20 µM in each case.

Regarding `CC(=O)c1c(C)c2cnc(Nc3ccc(N4CCN(CCC(=O)NCCCCCCNCC#N)CC4)cn3)nc2n(C2CCCC2)c1=O`, the IC50 in experiment [1], in experiment [2], in experiment [3] and in experiment [4] was over 20 µM in each case.

For the compound `CC(=O)c1c(C)c2cnc(Nc3ccc(N4CCN(CC(=O)NCCNC(=O)CCl)CC4)cn3)nc2n(C2CCCC2)c1=O`, the IC50 is over 20 µM in experiment [1], 10.2 µM in experiment [2], 7.6 µM in experiment [3] and 2.39 µM in experiment [4]. Besides, the inhibition came out at 93.4% in experiment [5], 60.8% in experiment [6], 104% in experiment [7] and 81.6% in experiment [8].

`CC(=O)c1c(C)c2cnc(Nc3ccc(N4CCN(CCC(=O)NCCCCCCNC(=O)CCl)CC4)cn3)nc2n(C2CCCC2)c1=O`: the IC50 in experiment [1], in experiment [2], in experiment [3] and in experiment [4] was over 20 µM throughout.

On to `CC(=O)c1c(C)c2cnc(Nc3ccc(N4CCN(CC(=O)NCCOCCOCCNCC#N)CC4)cn3)nc2n(C2CCCC2)c1=O`, for which the IC50 in experiment [1], in experiment [2], in experiment [3] and in experiment [4] was over 20 µM throughout.

For `C=CC(=O)NCCOCCOCCNC(=O)CCN1CCN(c2ccc(Nc3ncc4c(C)c(C(C)=O)c(=O)n(C5CCCC5)c4n3)nc2)CC1`, the IC50 was over 20 µM in experiment [1], over 20 µM in experiment [2], 8.19 µM in experiment [3] and over 20 µM in experiment [4].

`C=CC(=O)NCCOCCNC(=O)CCN1CCN(c2ccc(Nc3ncc4c(C)c(C(C)=O)c(=O)n(C5CCCC5)c4n3)nc2)CC1`: the IC50 in experiment [1] is over 20 µM; in experiment [2], over 20 µM; in experiment [3] it was 5.25 µM; in experiment [4] it was over 20 µM.

As for `CC(=O)c1c(C)c2cnc(Nc3ccc(N4CCN(CC(=O)NCCCNCC#N)CC4)cn3)nc2n(C2CCCC2)c1=O`, the IC50 in experiment [1] was 19.2 µM; in experiment [2], over 20 µM; in experiment [3] it was 15.5 µM; in experiment [4], over 20 µM.

For `C=CC(=O)NCCCCNC(=O)CCN1CCN(c2ccc(Nc3ncc4c(C)c(C(C)=O)c(=O)n(C5CCCC5)c4n3)nc2)CC1`, the IC50 in experiment [1], in experiment [2], in experiment [3] and in experiment [4] was over 20 µM throughout.

As to `CC(=O)c1c(C)c2cnc(Nc3ccc(N4CCN(CCC(=O)NCCOCCNC(=O)CCl)CC4)cn3)nc2n(C2CCCC2)c1=O`, the IC50 is over 20 µM in experiment [1], over 20 µM in experiment [2], 6.11 µM in experiment [3] and 11.5 µM in experiment [4]. For the same compound, the inhibition is 94.4% in experiment [5], 60.5% in experiment [6], 103% in experiment [7] and 91.2% in experiment [8].

`CC(=O)c1c(C)c2cnc(Nc3ccc(N4CCN(CCC(=O)NCCOCCNCC#N)CC4)cn3)nc2n(C2CCCC2)c1=O`: the IC50 in experiment [1], in experiment [2], in experiment [3] and in experiment [4] was over 20 µM each time.

`C=CC(=O)NCCNC(=O)CCN1CCN(c2ccc(Nc3ncc4c(C)c(C(C)=O)c(=O)n(C5CCCC5)c4n3)nc2)CC1`: the IC50 in experiment [1], in experiment [2], in experiment [3] and in experiment [4] was over 20 µM throughout.

Regarding `C=CC(=O)NCCOCCNC(=O)CN1CCN(c2ccc(Nc3ncc4c(C)c(C(C)=O)c(=O)n(C5CCCC5)c4n3)nc2)CC1`, the IC50 in experiment [1] is over 20 µM; in experiment [2], over 20 µM; in experiment [3], 15.4 µM; in experiment [4], over 20 µM.

For the compound `CC(=O)c1c(C)c2cnc(Nc3ccc(N4CCN(CCC(=O)NCCCNCC#N)CC4)cn3)nc2n(C2CCCC2)c1=O`, the IC50 in experiment [1], in experiment [2], in experiment [3] and in experiment [4] was over 20 µM throughout.

Turning to `C=CC(=O)NCCCCCCNC(=O)CCN1CCN(c2ccc(Nc3ncc4c(C)c(C(C)=O)c(=O)n(C5CCCC5)c4n3)nc2)CC1`, the IC50 in experiment [1], in experiment [2], in experiment [3] and in experiment [4] was over 20 µM each time.

Consider `CC(=O)c1c(C)c2cnc(Nc3ccc(N4CCN(CCC(=O)NCCNC(=O)CCl)CC4)cn3)nc2n(C2CCCC2)c1=O`, for which the IC50 in experiment [1], in experiment [2], in experiment [3] and in experiment [4] was over 20 µM each time.

For the compound `CC(=O)c1c(C)c2cnc(Nc3ccc(N4CCN(CCC(=O)NCCOCCOCCNC(=O)CCl)CC4)cn3)nc2n(C2CCCC2)c1=O`, the IC50 in experiment [1] is over 20 µM; in experiment [2], 8.92 µM; in experiment [3], 9.2 µM; in experiment [4], 15.8 µM.

On to `CC(=O)c1c(C)c2cnc(Nc3ccc(N4CCN(CC#N)CC4)cn3)nc2n(C2CCCC2)c1=O`, for which the IC50 in experiment [1] is over 20 µM; in experiment [2] it was 17.9 µM; in experiment [3], over 20 µM; in experiment [4] it was over 20 µM.

On to `C=CC(=O)NCCOCCOCCNC(=O)CN1CCN(c2ccc(Nc3ncc4c(C)c(C(C)=O)c(=O)n(C5CCCC5)c4n3)nc2)CC1`, for which the IC50 was over 20 µM in experiment [1], over 20 µM in experiment [2], 10.2 µM in experiment [3] and over 20 µM in experiment [4].

With `CC(=O)c1c(C)c2cnc(Nc3ccc(N4CCN(CC(=O)NCCOCCNCC#N)CC4)cn3)nc2n(C2CCCC2)c1=O`, the IC50 in experiment [1], in experiment [2], in experiment [3] and in experiment [4] was over 20 µM throughout.

For the compound `CC(=O)c1c(C)c2cnc(Nc3ccc(N4CCN(CC(=O)NCCCCNCC#N)CC4)cn3)nc2n(C2CCCC2)c1=O`, the IC50 in experiment [1], in experiment [2], in experiment [3] and in experiment [4] was over 20 µM each time.

Take `C=CC(=O)NCCNC(=O)CN1CCN(c2ccc(Nc3ncc4c(C)c(C(C)=O)c(=O)n(C5CCCC5)c4n3)nc2)CC1`: the IC50 in experiment [1] is over 20 µM; in experiment [2], 18.7 µM; in experiment [3], over 20 µM; in experiment [4], over 20 µM.

For the compound `C=CC(=O)NCCCCCCNC(=O)CN1CCN(c2ccc(Nc3ncc4c(C)c(C(C)=O)c(=O)n(C5CCCC5)c4n3)nc2)CC1`, the IC50 in experiment [1] was over 20 µM; in experiment [2], 14.8 µM; in experiment [3], over 20 µM; in experiment [4], over 20 µM.

In the case of `CC(=O)c1c(C)c2cnc(Nc3ccc(N4CCN(CC(=O)NCCNCC#N)CC4)cn3)nc2n(C2CCCC2)c1=O`, the IC50 in experiment [1] is over 20 µM; in experiment [2] it was over 20 µM; in experiment [3] it was 9.89 µM; in experiment [4], over 20 µM.
